In the supplement of paper PMC10307832:

Columns and labels:
Assay in all cases: relative viability (nuclei count vs DMSO), 5 days (fraction); higher = more cells survive
[1] = compound: C#Cc1cccc(Nc2ncnc3cc(OCCOC)c(OCCOC)cc23)c1 [Erlotinib] + N=C(N)NC(=N)NCCc1ccccc1 [Phenformin] (partner 250 µM)
In short: (§1)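 Medians of duplicate plates are given as relative viability. That measure is the nuclei count in treated wells divided by the count in vehicle wells. Counts were taken on 4× images of lung cancer cell lines in 1536-well plates, 5 days after pin-tool dosing the day after seeding with one drug alone or a fixed anchor-drug dose plus five library-drug doses (not always all listed) in √10 steps.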

[2] = compound: O=C(Nc1c[nH]nc1-c1nc2ccc(CN3CCOCC3)cc2[nH]1)NC1CC1 [AT9283] + CC(=O)Nc1cccc(-n2c(=O)n(C3CC3)c(=O)c3c(Nc4ccc(I)cc4F)n(C)c(=O)c(C)c32)c1 [Trametinib] (partner 0.02 µM)
In short: as §1

[3] = compound: C#Cc1cccc(Nc2ncnc3cc(OCCOC)c(OCCOC)cc23)c1 [Erlotinib] + C[C@]1(O)C[C@@H](c2nc(-c3ccc4ccc(-c5ccccc5)nc4c3)c3c(N)nccn32)C1 [Linsitinib] (partner 1 µM)
In short: as §1

[4] = compound: O=C(Nc1c[nH]nc1-c1nc2ccc(CN3CCOCC3)cc2[nH]1)NC1CC1 [AT9283] + O=C(c1cc(Cc2n[nH]c(=O)c3ccccc23)ccc1F)N1CCN(C(=O)C2CC2)CC1 [Olaparib] (partner 8 µM)
In short: as §1

[5] = compound: O=C(Nc1c[nH]nc1-c1nc2ccc(CN3CCOCC3)cc2[nH]1)NC1CC1 [AT9283] + C[C@]1(O)C[C@@H](c2nc(-c3ccc4ccc(-c5ccccc5)nc4c3)c3c(N)nccn32)C1 [Linsitinib] (partner 1 µM)
In short: as §1

| Cell Line | relative viability ([1]; first compound 0.02 µM) | relative viability ([1]; first compound 0.2 µM) | relative viability ([1]; first compound 0.6325 µM) | relative viability ([1]; first compound 2 µM) | relative viability ([2]; first compound 0.003 µM) | relative viability ([2]; first compound 0.03 µM) | relative viability ([2]; first compound 0.09487 µM) | relative viability ([2]; first compound 0.3 µM) | relative viability ([3]; first compound 0.02 µM) | relative viability ([3]; first compound 0.2 µM) | relative viability ([3]; first compound 0.6325 µM) | relative viability ([3]; first compound 2 µM) | relative viability ([4]; first compound 0.003 µM) | relative viability ([4]; first compound 0.03 µM) | relative viability ([4]; first compound 0.09487 µM) | relative viability ([4]; first compound 0.3 µM) | relative viability ([5]; first compound 0.003 µM) | relative viability ([5]; first compound 0.03 µM) | relative viability ([5]; first compound 0.09487 µM) | relative viability ([5]; first compound 0.3 µM) |
| --- | --- | --- | --- | --- | --- | --- | --- | --- | --- | --- | --- | --- | --- | --- | --- | --- | --- | --- | --- | --- |
| NCI-H2023 | 0.435 | 0.418 | 0.471 | 0.378 | 0.572 | 0.604 | 0.227 | 0.119 | 0.721 | 0.574 | 0.428 | 0.496 | 0.511 | 0.409 | 0.21 | 0.0856 | 0.765 | 0.308 | 0.135 | 0.132 |
| NCI-H2085 | 0.762 | 0.493 | 0.528 | 0.472 | 0.532 | 0.453 | 0.395 | 0.318 | 0.858 | 0.728 | 0.664 | 0.76 | 0.834 | 0.772 | 0.629 | 0.292 | 0.847 | 0.687 | 0.245 | 0.214 |
| NCI-H2087 | 0.516 | 0.483 | 0.506 | 0.304 | 0.176 | 0.096 | 0.124 | 0.107 | 1.03 | 1.14 | 1.06 | 0.828 | 0.71 | 0.416 | 0.194 | 0.154 | 1.08 | 0.542 | 0.339 | 0.245 |
| NCI-H2126 | 0.534 | 0.464 | 0.489 | 0.41 | 0.573 | 0.566 | 0.38 | 0.293 |  | 0.597 | 0.548 | 0.419 | 0.978 | 0.938 | 0.698 | 0.364 | 0.685 | 0.758 | 0.714 | 0.276 |
| NCI-H2228 | 0.414 | 0.338 | 0.357 | 0.257 | 0.422 | 0.518 | 0.239 | 0.207 | 0.515 | 0.75 | 0.557 | 0.514 | 0.675 | 0.455 | 0.228 | 0.153 | 0.823 | 0.632 | 0.17 | 0.175 |
| NCI-H2347 | 0.511 |  | 0.326 | 0.326 | 0.292 | 0.269 | 0.275 | 0.262 | 1.03 | 1.04 |  | 0.834 | 0.595 | 0.615 | 0.477 | 0.413 | 0.952 | 0.975 | 0.555 | 0.389 |
| NCI-H2405 | 0.449 | 0.347 | 0.401 | 0.404 | 0.737 | 0.491 | 0.296 | 0.185 | 1.01 |  | 0.994 | 0.768 | 0.941 | 0.615 | 0.333 | 0.217 | 1.06 | 0.632 | 0.315 | 0.221 |
| NCI-H3122 | 0.361 | 0.388 | 0.392 | 0.377 | 0.277 | 0.247 | 0.168 | 0.097 | 1.04 | 1.06 | 1.02 | 0.961 | 0.561 | 0.571 | 0.351 | 0.241 | 0.963 | 0.885 | 0.346 | 0.166 |
| PC-3 [JPC-3] | 0.445 | 0.367 | 0.268 | 0.291 | 0.718 | 0.672 | 0.71 | 0.481 | 0.829 | 0.461 | 0.423 | 0.385 | 1.31 | 1.03 | 0.844 | 0.607 | 0.94 | 1.03 | 0.74 | 0.521 |
| PC-14 | 0.278 | 0.171 | 0.177 | 0.139 | 0.827 | 0.459 | 0.131 | 0.0923 | 0.426 | 0.289 | 0.269 | 0.219 | 0.264 | 0.151 | 0.074 | 0.0669 | 1.04 | 0.729 | 0.438 | 0.138 |
| RERF-LC-KJ | 0.393 | 0.372 | 0.311 | 0.337 | 0.877 | 0.691 | 0.412 | 0.251 | 0.914 | 0.837 | 0.736 | 0.565 | 0.962 | 0.485 | 0.267 | 0.237 | 0.995 | 0.508 | 0.264 | 0.208 |
| SK-LU-1 | 0.621 | 0.536 | 0.573 | 0.479 | 0.508 | 0.424 | 0.288 | 0.279 | 1.46 | 1.11 | 1.18 | 0.75 | 0.495 | 0.479 | 0.259 | 0.258 | 1.1 | 0.349 | 0.323 | 0.356 |
| SK-MES-1 | 0.705 | 0.599 | 0.385 | 0.368 | 0.643 | 0.594 | 0.541 | 0.276 | 1.09 | 0.767 | 0.537 | 0.434 | 0.783 | 0.677 | 0.415 | 0.144 | 1.07 | 0.933 | 0.846 | 0.17 |
| SW 1573 | 0.377 | 0.412 | 0.312 | 0.372 | 0.597 | 0.174 | 0.17 | 0.143 | 0.81 | 0.724 | 0.797 | 0.853 | 0.485 | 0.159 | 0.159 | 0.14 | 0.917 | 0.413 | 0.223 | 0.184 |
| UMC-11 | 0.334 | 0.281 | 0.301 | 0.287 | 0.679 | 0.134 | 0.126 | 0.164 | 1.04 | 1.05 | 1.16 | 0.945 | 0.712 | 0.218 | 0.213 | 0.23 | 0.849 | 0.138 | 0.14 | 0.168 |
